In patent publication US8680150B2, “Small molecule hematopoietic growth factor mimetic compounds that activate hematopoietic growth factor receptors” (Ligand Pharmaceuticals, Inc., priority 2009, dated 2014):

tested on: UT7/EPO Cell line; assay: Cell proliferation assay in UT7/EPO cell line (ViaLight Plus); format: cell-based, human; conditions: compound at 10 uM; efficacy relative to EPO (100%); UT7/EPO cells expressing endogenous EPO receptor, starved of EPO overnight; 72 hours at 37° C.
Procedure: The primary testing for the exemplified compounds was performed in UT7/EPO Cell line. UT7/EPO is human leukemia cell line, obtained from Dr. Norio Komatsu (Blood, Vol 82 (2), pp 456-464, 1993). These cells express endogenous EPO receptor and are dependant upon EPO for growth and proliferation. Briefly, the cells were starved of EPO overnight and plated in 96 or 384 well plates. The compounds were added to the cells at 10 uM concentration. The plates were then incubated at 37° C. for 72 hours. The proliferative effect of the compounds was measured by a commercially available kit from Lonza (ViaLight Plus).

Q: Which “Activity (%)” value does the source give for `CN(C)c1ccc(C(=O)N/N=C/c2cccc(CO)c2)cc1` [Compound 171, 4-Dimethylaminobenz(3-hydroxymethylbenzylidene)hydrazide] here?
A: The value was 16%.

Q: With `Cc1ccccc1/C=C/c1cccc(/C=N/NC(=O)c2ccc(N(C)C)cc2)c1` [Compound 181, 4-Dimethylaminobenz(2E-(2-methylphenyl)ethenylbenzylidene)hydrazide] as the compound, how does the “Activity (%)” value read?
A: The value was 4.2%.

Q: How did the “Activity (%)” value turn out when `C=Cc1ccc(COc2ccc(C(=O)N/N=C/c3cccc(OC)c3)cc2)cc1` [Compound 156, 4-(4-Vinylbenzyloxy)benz(3-methoxybenzylidene)hydrazide] was run?
A: The value was 7.9%.

Q: With `Cc1ccccc1COCc1cccc(/C=N/NC(=O)c2ccc(N(C)C)cc2)c1` [Compound 188, 4-Dimethylaminobenz(3-(2-methylbenzyloxy)methylbenzylidene)hydrazide] as the compound, how does the “Activity (%)” value read?
A: Its value is 5.5%.

Q: For `COc1cccc(/C=N/NC(=O)c2ccc(OCc3ccccc3)cc2)c1` [Compound 149, 4-Benzyloxybenz(3-methoxybenzylidene)hydrazide], which “Activity (%)” value is on record?
A: Its value is 9.7%.

Q: `COc1ccc(C(=O)N/N=C/c2cccc(OC)c2)cc1` [Compound 128, 4-Methoxybenz(3-methoxybenzylidene)hydrazide] was tested. Which “Activity (%)” value did it give?
A: Its value is 5.6%.

Q: `CC(=O)c1cccc(/C=N/NC(=O)c2ccc(-c3ccccc3)cc2)c1` [Compound 165, 4-Phenylbenz(3-acetylbenzylidene)hydrazide] was tested. Which “Activity (%)” value did it give?
A: Its value is 14%.

Q: How did the “Activity (%)” value turn out when `COc1cccc(/C=N/NC(=O)c2ccc(OCc3ccc(C)cc3)cc2)c1` [Compound 134, 4-(4-Methylbenzyloxy)benz(3-methoxybenzylidene)hydrazide] was run?
A: Its value is 14%.

Q: Which “Activity (%)” value does the source give for `COc1cccc(/C=N/NC(=O)c2ccc(-n3ccnc3)cc2)c1` [Compound 193, 4-(1-Imidazolyl)benz(3-methoxybenzylidene)hydrazide] here?
A: Its value is 7.3%.

Q: With `COc1ccc(O)c(/C=N/NC(=O)c2cc3cc(O)ccc3o2)c1` [Compound 174, 5-Hydroxybenzofuran-2-carboxyl(2-hydroxy-5-methoxybenzylidene)hydrazide] as the compound, how does the “Activity (%)” value read?
A: Its value is 19%.

Q: How did the “Activity (%)” value turn out when `COc1ccc(O)c(/C=N/NC(=O)c2ccc(N3CCCC3=O)cc2)c1` [Compound 129, 4-(2-Oxopyrrolidino-1-)benz(2-hydroxy-5-methoxybenzylidene)hydrazide] was run?
A: The value was 23%.

Q: Which “Activity (%)” value does the source give for `CN(C)c1ccc(/C=N/NC(=O)c2ccc(N3CCCC3=O)cc2)cc1` [Compound 127, 4-(2-Oxopyrrolidino-1-)benz(4-dimethylaminobenzylidene)hydrazide] here?
A: Its value is 6.8%.

Q: For `CN(C)c1ccc(C(=O)N/N=C/c2cccc(OCCO)c2)cc1` [Compound 195, 4-Dimethylaminobenz(3-(2-hydroxyethoxy)benzylidene)hydrazide], which “Activity (%)” value is on record?
A: Its value is 7.3%.

Q: How did the “Activity (%)” value turn out when `CN(C)c1ccc(C(=O)N/N=C/c2cccc(/C=C/c3cccc(Cl)c3)c2)cc1` [Compound 182, 4-Dimethylaminobenz(2E-(3-chlorophenyl)ethenylbenzylidene)hydrazide] was run?
A: The value was 11%.

Q: How did the “Activity (%)” value turn out when `CN(C)c1ccc(C(=O)N/N=C/c2cccc(/C=C/c3ccccc3Cl)c2)cc1` [Compound 185, 4-Dimethylaminobenz(2E-(2-chlorophenyl)ethenylbenzylidene)hydrazide] was run?
A: Its value is 16%.

Q: For `COc1cc(/C=N/NC(=O)c2ccc(OCc3ccc(Cl)cc3)cc2)ccc1O` [Compound 141, 4-(4-Chlorobenzyloxy)benz(4-hydroxy-3-methoxybenzylidene)hydrazide], which “Activity (%)” value is on record?
A: Its value is 17%.

Q: Which “Activity (%)” value does the source give for `CN(C)c1ccc(C(=O)N/N=C/c2cccc(/C=N/OCc3ccccc3)c2)cc1` [Compound 190, 4-Dimethylaminobenz(3-benzyloxyiminomethylbenzylidene)hydrazide] here?
A: The value was 20%.

Q: With `C=CCO/N=C/c1cccc(/C=N/NC(=O)c2ccc(N(C)C)cc2)c1` [Compound 192, 4-Dimethylaminobenz(3-allyloxyiminomethylbenzylidene)hydrazide] as the compound, how does the “Activity (%)” value read?
A: Its value is 5.3%.

Q: `COCc1cccc(/C=N/NC(=O)c2ccc(N(C)C)cc2)c1` [Compound 187, 4-Dimethylaminobenz(3-methoxymethylbenzylidene)hydrazide] was tested. Which “Activity (%)” value did it give?
A: Its value is 17%.

Q: `COc1ccc2c(c1)cc(C(=O)N/N=C/c1ccc(O)cc1)n2C` [Compound 121, (1-Methyl-5-methoxyindole-2-)carboxyl(4-hydroxybenzylidene)hydrazide] was tested. Which “Activity (%)” value did it give?
A: The value was 12%.

same assay, conditions: compound at 10 uM; efficacy relative to EPO (100%); UT7/EPO cells expressing endogenous EPO receptor, starved of EPO overnight; 72 hours at 37° C.; 10 µM

Q: `COc1cccc(/C=N/NC(=O)c2ccc(N(C)C)cc2)c1` [Compound 168, 4-Dimethylaminobenz(3-methoxybenzylidene)hydrazide] was tested. Which “Activity (%)” value did it give?
A: The value was 11%.

Q: Which “Activity (%)” value does the source give for `COc1cccc(/C=N/NC(=O)c2ccc(N(C)C)cc2)c1` [Compound 139, 4-Dimethylaminobenz(3-methoxybenzylidene)hydrazide] here?
A: The value was 7.8%.
